The values that follow come from patent publication US11191773B2, “Methods of treatment for bacterial infections” (President and Fellows of Harvard College, priority 2017, dated 2021).

By MIC is commonly meant the least concentration at which growth counts as inhibited.

Assay [1] has as its target T1, wild-type LptB2FGC complexes (Escherichia coli, UniProt P0A9V1).
T1 construct: made in house; host or cells: right-side-out membrane vesicles from E. coli BL-21(λDE3) overexpressing the complex
In words: LPS-release assay, right-side-out vesicles to LptA*. It is filed as biochemical, E. coli. On the procedure:
FIG. 9A is a schematic drawing showing the assay to monitor LPS release from right-side-out vesicles to LptA* (LptA(I36pBPA)). Vesicles containing overexpressed wild-type or mutant LptB2FGC complexes were incubated with LptA* and ATP at 30° C. to initiate LPS extraction and transport from the vesicles to LptA*. Samples were taken at different time points and UV-irradiated to crosslink LPS to LptA*, and accumulation of LPS-LptA* adducts was detected using LPS immunoblots.
FIG. 9D is a picture of an immunoblot showing that novobiocin and derivatives with impaired gyrase activities stimulate LPS transport in E. coli in vitro. […] Samples were UV irradiated at 365 nm for 5 minutes and then quenched with 2X SDS/5% β-mercaptoethanol. Samples were immunoblotted.
The assay detects via immunoblot LPS that becomes crosslinked to LptA* in the presence of UV light. […] By comparison, vesicles containing LptB2LptFG(ch)C complexes released less LPS over time (FIG. 9B, lanes 5-8). These experiments provide direct evidence that the amino acid changes in LptFG(ch), which were known to affect complex formation with LptB, impair LPS release. […] These compounds also increase LPS release from vesicles containing wild-type LptB2FGC complexes or LptB(R91 S)2FGC complexes (FIG. 17).
Samples were UV irradiated at 365 nm for 5 minutes and then quenched with 2X SDS/5% β-mercaptoethanol. Samples were immunoblotted.
The in vitro LPS-transport experiments in FIGS. 9B, 9C, and 17 were set-up as described in (Okuda et al. Science 2012, 338, 1214-1217) with some modifications. RSO-vesicles (50 μg total protein) were diluted into 100 μL reaction buffer (10% v/v glycerol, 20 mM Tris (pH 8.0), 150 mM NaCl, 5 mM sodium-ATP, 5 mM MgCl2), and incubated on ice with novobiocin, 1-adamantyl-novobiocin, or no compound for 15 minutes (50× compound stocks in water were used for each concentration). […]
Immunoblotting was used to assess LptA*-LPS levels in each sample. […] LptA levels were assessed similarly, using rabbit anti-LptA antiserum followed by donkey anti-rabbit horseradish peroxidase conjugate (GE Amersham). […]

Another assay relates to IptFG(ch) mutant. Kind of assay: Rescue of growth of coupling helix mutant (plating and disk assays). It is filed as cell-based, E. coli. The procedure: FIG. 8B is a series of pictures of bacterial overnight cultures grown in minimal medium. The cultures were serially diluted ten-fold and spotted onto LB agar plates with and without compounds.
FIG. 15 is a picture of bacterial lawns grown on plates in the presence of disks containing antibiotics. […] Strains were grown overnight in minimal media and then plated on LB plates. Each disk contained 5 μg compound.
The coupling helices in LptFG each contain a strictly-conserved glutamate, and changing both glutamates to alanine (IptFG(ch)) causes a lethal loss of function (FIG. 8B, LB panel). […] Because novobiocin also contacts R91 (FIG. 7C), we speculated that it might rescue growth of IptFG(ch) by masking the charge. […] We conclude that novobiocin suppresses Lpt defects in vivo by interacting with LptB at R91; therefore, novobiocin interacts with LptB in cells in a similar manner to that observed in the crystal structure.
Disk diffusion assays were performed as described in Sherman et al., Proc. Natl. Acad. Sci. USA 2014, 111, 4982-4987. Premade Sensi-Disc (BD-Beckton, Dickinson and Company) were used for bacitracin 10IU, erythromycin 15 μg, novobiocin 30 μg, and rifampin 5 μg.
Efficiency of plating assays were performed on indicated media using the method described in Butler et al., J. Bacteriol. 2013, 195, 4639-4649.

For a further assay, the system named is Pseudomonas aeruginosa. In words: Minimal inhibitory concentrations, checkerboard microdilution. It is filed as cell-based. Particulars: Pseudomonas aeruginosa; grown at 37° C. for 24 h; read-out: MIC. The procedure:
(§1) Checkerboard microdilution assays between polymyxin B and novobiocin were performed in wild-type strains (unless otherwise noted) grown at 37° C. for 24 h. Checkerboard data (FIG. 1A-1F) are representative of at least three biological replicates. The following strains were tested: A) Wild-type Escherichia coli, ATCC 25922; B) Wild-type Enterobacter cloacae; ATCC 13047) Wild-type Klebsiella pneumoniae, ATCC 700721; D) Wild-type Pseudomonas aeruginosa, ATCC 15692 (PAO1); E) Wild-type Acinetobacter baumannii, ATCC 19606; F) novobiocin-resistant Acinetobacter baumannii, ATCC 19606 gyrB(R150C).
On the technique in general: In broth dilution the organism is exposed to a series of concentrations in liquid medium.

The subject of another assay is Klebsiella pneumoniae. Described as above. Format: cell-based. Particulars: Klebsiella pneumoniae; grown at 37° C. for 24 h; read-out: MIC. The procedure: as §1
The next assay concerns Escherichia coli. Described as above. Format: cell-based. Particulars: Escherichia coli; grown at 37° C. for 24 h; read-out: MIC. The procedure: as §1
Assay [2] concerns Acinetobacter baumannii Novo^R. Described as above. To be noted: Acinetobacter baumannii, 24 h. Format: cell-based. The procedure:
as §1

Molecules are shown by their SMILES. Where only a bound is given, the exact number is not on record here.

T1 sequence (P0AF98 whole entry): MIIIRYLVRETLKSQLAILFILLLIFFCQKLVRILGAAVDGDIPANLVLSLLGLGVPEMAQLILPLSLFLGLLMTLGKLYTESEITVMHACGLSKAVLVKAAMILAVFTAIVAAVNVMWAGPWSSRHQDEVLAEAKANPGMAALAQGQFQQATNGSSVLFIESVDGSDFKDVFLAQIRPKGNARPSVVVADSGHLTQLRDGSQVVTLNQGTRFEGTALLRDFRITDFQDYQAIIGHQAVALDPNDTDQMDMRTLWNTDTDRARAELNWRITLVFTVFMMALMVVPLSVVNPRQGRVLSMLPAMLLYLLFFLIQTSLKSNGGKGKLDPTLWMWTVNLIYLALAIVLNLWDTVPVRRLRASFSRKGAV
T1 sequence (P0ADV9 whole entry, further chain): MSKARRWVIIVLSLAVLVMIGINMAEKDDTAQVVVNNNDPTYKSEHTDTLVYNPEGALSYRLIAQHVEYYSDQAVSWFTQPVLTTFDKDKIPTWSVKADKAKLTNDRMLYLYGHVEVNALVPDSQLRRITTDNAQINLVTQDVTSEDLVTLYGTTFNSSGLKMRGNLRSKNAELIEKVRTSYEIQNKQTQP
T1 sequence (P0ADC6 whole entry, further chain): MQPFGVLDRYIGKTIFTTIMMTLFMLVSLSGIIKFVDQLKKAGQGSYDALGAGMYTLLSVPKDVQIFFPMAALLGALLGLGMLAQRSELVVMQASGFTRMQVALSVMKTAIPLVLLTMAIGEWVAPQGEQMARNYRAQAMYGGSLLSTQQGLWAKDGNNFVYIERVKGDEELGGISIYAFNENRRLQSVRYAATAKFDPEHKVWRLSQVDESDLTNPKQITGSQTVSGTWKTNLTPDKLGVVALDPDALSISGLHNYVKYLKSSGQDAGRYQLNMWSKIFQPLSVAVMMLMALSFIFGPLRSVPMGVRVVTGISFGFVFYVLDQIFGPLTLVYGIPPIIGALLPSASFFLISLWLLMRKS
T1 sequence (P0A9V1 2-241): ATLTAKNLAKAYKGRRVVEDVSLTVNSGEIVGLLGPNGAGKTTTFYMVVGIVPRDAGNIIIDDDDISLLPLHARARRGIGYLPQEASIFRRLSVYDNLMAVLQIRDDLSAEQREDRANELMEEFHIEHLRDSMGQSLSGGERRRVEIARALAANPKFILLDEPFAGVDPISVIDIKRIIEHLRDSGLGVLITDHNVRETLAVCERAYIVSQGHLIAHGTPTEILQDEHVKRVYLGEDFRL

`CO[C@@H]1[C@@H](OC(N)=O)[C@@H](O)[C@H](Oc2ccc3c(O)c(NC(=O)c4ccc(O)c(CC=C(C)C)c4)c(=O)oc3c2C)OC1(C)C` [Novobiocin, novobiocin]: the “LPS transport in vitro” value in assay [1] (overexpressed LptB2FGC vesicles, 30° C. for 1 hour (FIG. 9D, 9E)) is recorded as “stimulate LPS transport in vitro”. For the same compound, the “LPS release from vesicles to LptA*” value in assay [1] (wild-type LptB2FGC or LptB(R91 S)2FGC vesicles (FIG. 17)) was “stimulates LPS release”. In addition, the “suppression of lethality of IptFG(ch)” value in the assay on IptFG(ch) mutant (disks on LB plates, each disk 5 μg compound (FIG. 15)) was “suppressed the lethality of IptFG(ch)”. Besides, the “rescue of growth of IptFG(ch)” value in the assay on IptFG(ch) mutant (serial dilutions spotted onto LB agar plates with compound (FIG. 8B)) is “enables the IptFG(ch) mutant to grow”. Besides, the MIC with Pseudomonas aeruginosa is greater than 450 µg/mL; with Klebsiella pneumoniae, 270 µg/mL; with Escherichia coli it was 20 µg/mL; in assay [2] it was 190 µg/mL.
